From PubChem BioAssay (NCI)
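Interpolation was linear, between the two tested concentrations surrounding the appropriate level; five concentrations were tested over 48 hours in 96-well plates. At the TGI there is no net growth.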

Columns and labels:
Assay in all cases: NCI anticancer screen, dose series, 48 h
UACC-62 melanoma = system: UACC-62 melanoma
TK-10 renal = system: TK-10 renal
HOP-92 NSCLC = system: HOP-92 NSCLC
A549 NSCLC = system: A549 NSCLC
ACHN renal = system: ACHN renal
SK-OV-3 ovarian = system: SK-OV-3 ovarian
NCI-H460 lung = system: NCI-H460 lung

For `O=C1O/C(=C(/Cl)c2c3ccccc3cc3ccccc23)c2ccccc21`, which TGI (UACC-62 melanoma) is on record?
Its TGI is greater than 100 µM.

What about the TGI (TK-10 renal) of the same compound?
The TGI was greater than 100 µM.

And the TGI (HOP-92 NSCLC)?
Its TGI is 50.3 µM.

What about the TGI (A549 NSCLC) of the same compound?
Its TGI is greater than 100 µM.

What about the TGI (ACHN renal) of the same compound?
The TGI was 82.9 µM.

And the TGI (SK-OV-3 ovarian)?
The TGI was greater than 100 µM.

And the TGI (NCI-H460 lung)?
Its TGI is greater than 100 µM.

What does the source list for `COC(=O)/C=C/c1ccc2c(c1)[C@H](C(=O)OC)[C@@H](c1ccc(O)cc1)O2`?
TGI (UACC-62 melanoma): > 100 µM; TGI (TK-10 renal): > 100 µM; TGI (HOP-92 NSCLC): > 100 µM; TGI (A549 NSCLC): > 100 µM; TGI (ACHN renal): > 100 µM; TGI (SK-OV-3 ovarian): > 100 µM; TGI (NCI-H460 lung): > 100 µM

Which TGI (UACC-62 melanoma) does the source give for `COc1ccc2cc(/C=N\NC(=O)Nc3ccc([N+](=O)[O-])cc3)ccc2c1` here?
The TGI was 19.2 µM.

What about the TGI (TK-10 renal) of the same compound?
Its TGI is 14.4 µM.

And the TGI (HOP-92 NSCLC)?
The TGI was 32.4 µM.

And the TGI (A549 NSCLC)?
The TGI was 18.5 µM.

What about the TGI (ACHN renal) of the same compound?
Its TGI is 19.8 µM.

And the TGI (SK-OV-3 ovarian)?
Its TGI is 18.5 µM.

What about the TGI (NCI-H460 lung) of the same compound?
The TGI was 18.3 µM.

`CC1(C)N([O-])[N+](=O)C1(Br)c1ccccc1` (stereo not drawn) was tested. Which TGI (UACC-62 melanoma) did it give?
Its TGI is greater than 100 µM.

What about the TGI (TK-10 renal) of the same compound?
Its TGI is greater than 100 µM.

And the TGI (HOP-92 NSCLC)?
Its TGI is greater than 100 µM.

What about the TGI (A549 NSCLC) of the same compound?
Its TGI is greater than 100 µM.

What about the TGI (ACHN renal) of the same compound?
Its TGI is greater than 100 µM.

And the TGI (SK-OV-3 ovarian)?
Its TGI is greater than 100 µM.

What about the TGI (NCI-H460 lung) of the same compound?
The TGI was greater than 100 µM.

What does the source list for `COC(=O)C1=C(C(=O)OC)C(OO)(c2ccccc2)OC1=O` (stereo not drawn)?
TGI (UACC-62 melanoma): > 100 µM; TGI (TK-10 renal): > 100 µM; TGI (HOP-92 NSCLC): > 100 µM; TGI (A549 NSCLC): > 100 µM; TGI (ACHN renal): > 100 µM; TGI (SK-OV-3 ovarian): > 100 µM; TGI (NCI-H460 lung): > 100 µM

Which TGI (UACC-62 melanoma) does the source give for `CC(C)N(C(=O)C12C3(C(=O)C(C)(C)C)C4C5(C#N)C3C1(C(=O)C(C)(C)C)C5C42C(=O)C(C)(C)C)C(C)C` (stereo not drawn) here?
Its TGI is greater than 100 µM.

And the TGI (TK-10 renal)?
Its TGI is greater than 100 µM.

What about the TGI (HOP-92 NSCLC) of the same compound?
Its TGI is greater than 100 µM.

And the TGI (A549 NSCLC)?
The TGI was greater than 100 µM.

What about the TGI (ACHN renal) of the same compound?
The TGI was greater than 100 µM.

And the TGI (NCI-H460 lung)?
The TGI was greater than 100 µM.

Which TGI (UACC-62 melanoma) does the source give for `CC(CC(C)[C@H]1CCC2[C@H]3C(CC(=O)[C@@]21C)[C@@]1(C)CCC(O)C[C@H]1C[C@@H]3O)C(=O)O` (stereo partly drawn) here?
The TGI was greater than 100 µM.

And the TGI (TK-10 renal)?
The TGI was greater than 100 µM.

What about the TGI (HOP-92 NSCLC) of the same compound?
The TGI was greater than 100 µM.

And the TGI (A549 NSCLC)?
The TGI was greater than 100 µM.

What about the TGI (ACHN renal) of the same compound?
The TGI was greater than 100 µM.

What about the TGI (NCI-H460 lung) of the same compound?
Its TGI is greater than 100 µM.

What does the source list for `CC(=O)c1sc2n(C)c(=O)c3ccccc3[n+]2c1C`?
TGI (UACC-62 melanoma): > 100 µM; TGI (TK-10 renal): > 100 µM; TGI (HOP-92 NSCLC): > 100 µM; TGI (A549 NSCLC): > 100 µM; TGI (ACHN renal): > 100 µM; TGI (SK-OV-3 ovarian): > 100 µM; TGI (NCI-H460 lung): > 100 µM

Which TGI (UACC-62 melanoma) does the source give for `COC(=O)/C=C1/OC(c2ccc(C)cc2C)=CC1=O` here?
Its TGI is 26.5 µM.

And the TGI (TK-10 renal)?
Its TGI is 31.3 µM.

And the TGI (HOP-92 NSCLC)?
Its TGI is 45.6 µM.

What about the TGI (ACHN renal) of the same compound?
Its TGI is 29.3 µM.

And the TGI (SK-OV-3 ovarian)?
Its TGI is 33.1 µM.

What about the TGI (NCI-H460 lung) of the same compound?
The TGI was 36.5 µM.

With `COC(=O)/C(C#N)=C(/NCc1ccccc1)Nc1ccccc1` as the compound, how does the TGI (TK-10 renal) read?
Its TGI is greater than 100 µM.

What about the TGI (HOP-92 NSCLC) of the same compound?
Its TGI is greater than 100 µM.

And the TGI (A549 NSCLC)?
The TGI was greater than 100 µM.

What about the TGI (ACHN renal) of the same compound?
Its TGI is greater than 100 µM.

What about the TGI (SK-OV-3 ovarian) of the same compound?
The TGI was greater than 100 µM.

What about the TGI (NCI-H460 lung) of the same compound?
The TGI was greater than 100 µM.

With `COCCNC1CCC(=O)c2[nH]c3ccccc3c21` (stereo not drawn) as the compound, how does the TGI (TK-10 renal) read?
Its TGI is greater than 100 µM.

And the TGI (HOP-92 NSCLC)?
The TGI was greater than 100 µM.

What about the TGI (A549 NSCLC) of the same compound?
Its TGI is greater than 100 µM.

And the TGI (ACHN renal)?
Its TGI is greater than 100 µM.

And the TGI (NCI-H460 lung)?
Its TGI is greater than 100 µM.

How did the TGI (TK-10 renal) turn out when `CC(C)(C)OC(=O)NC(Cc1ccc(OCc2ccccc2)cn1)C(N)=O` (stereo not drawn) was run?
The TGI was greater than 100 µM.

And the TGI (HOP-92 NSCLC)?
Its TGI is greater than 100 µM.

And the TGI (A549 NSCLC)?
The TGI was greater than 100 µM.

And the TGI (ACHN renal)?
Its TGI is greater than 100 µM.

And the TGI (NCI-H460 lung)?
Its TGI is greater than 100 µM.

What does the source list for `COc1ccc2c(c1)C1c3ccccc3CCN1CCC2` (stereo not drawn)?
TGI (UACC-62 melanoma): > 100 µM; TGI (TK-10 renal): > 100 µM; TGI (HOP-92 NSCLC): > 100 µM; TGI (A549 NSCLC): > 100 µM; TGI (ACHN renal): > 100 µM; TGI (SK-OV-3 ovarian): > 100 µM

`CCC1(CC)C(=O)NN(C(=O)c2ccc(Cl)cc2)C1=O` was tested. Which TGI (UACC-62 melanoma) did it give?
The TGI was greater than 100 µM.

And the TGI (TK-10 renal)?
The TGI was greater than 100 µM.

What about the TGI (A549 NSCLC) of the same compound?
Its TGI is greater than 100 µM.

And the TGI (ACHN renal)?
Its TGI is greater than 100 µM.

And the TGI (SK-OV-3 ovarian)?
Its TGI is greater than 100 µM.

And the TGI (NCI-H460 lung)?
Its TGI is greater than 100 µM.

What does the source list for `Oc1ccccc1-c1n[nH]c(-c2ccccc2O)n1`?
TGI (UACC-62 melanoma): > 100 µM; TGI (TK-10 renal): > 100 µM; TGI (A549 NSCLC): > 100 µM; TGI (ACHN renal): > 100 µM; TGI (SK-OV-3 ovarian): > 100 µM; TGI (NCI-H460 lung): > 100 µM

What does the source list for `O=c1[nH]c2cc3[nH]c(=O)c(=O)[nH]c3cc2[nH]c1=O`?
TGI (UACC-62 melanoma): > 100 µM; TGI (TK-10 renal): > 100 µM; TGI (A549 NSCLC): > 100 µM; TGI (ACHN renal): > 100 µM; TGI (SK-OV-3 ovarian): > 100 µM; TGI (NCI-H460 lung): > 100 µM

Which results are given for `CNc1cccc2c1C(C)C[C@]1(C)C(=O)Nc3ccccc3[C@H]21` (stereo partly drawn)?
TGI (UACC-62 melanoma): > 100 µM; TGI (TK-10 renal): 37.2 µM; TGI (A549 NSCLC): 38.6 µM; TGI (ACHN renal): 50.8 µM; TGI (NCI-H460 lung): 41.1 µM

With `O=C1OC(C2Cc3ccc4c(c3C2=O)CCCC4)c2ccccc21` (stereo not drawn) as the compound, how does the TGI (UACC-62 melanoma) read?
The TGI was 69.9 µM.

What about the TGI (TK-10 renal) of the same compound?
The TGI was greater than 100 µM.

And the TGI (A549 NSCLC)?
Its TGI is greater than 100 µM.

And the TGI (ACHN renal)?
Its TGI is greater than 100 µM.

What about the TGI (SK-OV-3 ovarian) of the same compound?
The TGI was greater than 100 µM.

What about the TGI (NCI-H460 lung) of the same compound?
The TGI was greater than 100 µM.

For `O=S1(=O)c2ccccc2-c2nccc3ccnc1c23`, which TGI (UACC-62 melanoma) is on record?
The TGI was 31.7 µM.

What about the TGI (TK-10 renal) of the same compound?
The TGI was greater than 100 µM.

What about the TGI (HOP-92 NSCLC) of the same compound?
The TGI was greater than 100 µM.

And the TGI (ACHN renal)?
Its TGI is 85.3 µM.

What about the TGI (SK-OV-3 ovarian) of the same compound?
Its TGI is greater than 100 µM.

And the TGI (NCI-H460 lung)?
The TGI was 76.1 µM.

`CC1CN=C(NS(=O)(=O)c2cc(C(=O)Nc3ccccc3)c(Cl)cc2S)NN1` (stereo not drawn) was tested. Which TGI (UACC-62 melanoma) did it give?
The TGI was greater than 100 µM.

And the TGI (TK-10 renal)?
The TGI was greater than 100 µM.

What about the TGI (A549 NSCLC) of the same compound?
The TGI was greater than 100 µM.

And the TGI (ACHN renal)?
Its TGI is greater than 100 µM.

What about the TGI (SK-OV-3 ovarian) of the same compound?
Its TGI is greater than 100 µM.

What about the TGI (NCI-H460 lung) of the same compound?
The TGI was greater than 100 µM.

`CNC(=O)OCc1nc(N=[N+]=[N-])n(C)c1COC(=O)NC` was tested. Which TGI (TK-10 renal) did it give?
The TGI was greater than 100 µM.

And the TGI (HOP-92 NSCLC)?
Its TGI is 86.7 µM.

What about the TGI (A549 NSCLC) of the same compound?
The TGI was greater than 100 µM.

And the TGI (ACHN renal)?
The TGI was greater than 100 µM.

And the TGI (NCI-H460 lung)?
Its TGI is greater than 100 µM.

How did the TGI (UACC-62 melanoma) turn out when `COC1=CC(=O)c2c(n[nH]c2CCNC(=O)OCc2ccccc2)C1=O` was run?
Its TGI is 19.9 µM.

And the TGI (TK-10 renal)?
Its TGI is 70.6 µM.

What about the TGI (A549 NSCLC) of the same compound?
The TGI was 40.4 µM.

What about the TGI (ACHN renal) of the same compound?
Its TGI is 27.2 µM.

And the TGI (NCI-H460 lung)?
Its TGI is 31.3 µM.
